The target of experiment [1] is Muscarinic acetylcholine receptor. Put plainly: Inhibition of [3H]QNB binding to muscarinic receptor of rat heart membrane preparation.
Experiment [2] has the same target. Put plainly: Inhibition of [3H]- Oxo-M binding to muscarinic receptor of rat brain membrane preparations.
The target is the same in experiment [3]. The experiment in a line: Inhibition of [3H]QNB binding to muscarinic receptor of rat brain membrane preparation.
The target of experiment [4] is T1, Muscarinic acetylcholine receptor M1 (Rattus norvegicus, UniProt P08482).
T1 sequence (P08482 whole entry): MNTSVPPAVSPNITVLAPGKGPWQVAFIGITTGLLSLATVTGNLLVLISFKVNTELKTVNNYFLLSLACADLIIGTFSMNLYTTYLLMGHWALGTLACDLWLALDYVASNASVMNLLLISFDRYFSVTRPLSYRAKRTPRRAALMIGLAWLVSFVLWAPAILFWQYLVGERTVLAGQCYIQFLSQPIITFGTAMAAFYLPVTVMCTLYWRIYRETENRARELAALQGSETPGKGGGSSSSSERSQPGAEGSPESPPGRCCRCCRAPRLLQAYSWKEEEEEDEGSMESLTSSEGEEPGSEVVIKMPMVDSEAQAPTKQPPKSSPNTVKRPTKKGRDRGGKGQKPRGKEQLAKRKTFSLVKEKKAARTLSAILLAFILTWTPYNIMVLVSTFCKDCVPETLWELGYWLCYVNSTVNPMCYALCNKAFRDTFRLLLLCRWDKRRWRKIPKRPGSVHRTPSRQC
The experiment in a line: Inhibition of [3H]QNB binding to Muscarinic acetylcholine receptor M1 transfected with CHO cell. It is filed as cell-based.

The target in experiment [5] is T2, Muscarinic acetylcholine receptor M3 (Rattus norvegicus, UniProt P08483). The experiment in a line: Inhibition of [3H]QNB binding to Muscarinic acetylcholine receptor M3 transfected with CHO cell. The format is cell-based.
The target of experiment [6] is T2, Muscarinic acetylcholine receptor M3. Put plainly: Inhibition of [3H]QNB binding to m3 receptor transfected with CHO cell. The format is cell-based.

The values that follow come from ChEMBL document CHEMBL1126236, “Synthesis and muscarinic receptor activity of ester derivatives of 2-substituted 2-azabicyclo[2.2.1]heptan-5-ol and -6-ol” (J Med Chem, 1992).

By Ki is commonly meant a measure of affinity in units of concentration, obtained from inhibition or displacement.

Structures are written as SMILES.

T2 sequence (P08483 whole entry): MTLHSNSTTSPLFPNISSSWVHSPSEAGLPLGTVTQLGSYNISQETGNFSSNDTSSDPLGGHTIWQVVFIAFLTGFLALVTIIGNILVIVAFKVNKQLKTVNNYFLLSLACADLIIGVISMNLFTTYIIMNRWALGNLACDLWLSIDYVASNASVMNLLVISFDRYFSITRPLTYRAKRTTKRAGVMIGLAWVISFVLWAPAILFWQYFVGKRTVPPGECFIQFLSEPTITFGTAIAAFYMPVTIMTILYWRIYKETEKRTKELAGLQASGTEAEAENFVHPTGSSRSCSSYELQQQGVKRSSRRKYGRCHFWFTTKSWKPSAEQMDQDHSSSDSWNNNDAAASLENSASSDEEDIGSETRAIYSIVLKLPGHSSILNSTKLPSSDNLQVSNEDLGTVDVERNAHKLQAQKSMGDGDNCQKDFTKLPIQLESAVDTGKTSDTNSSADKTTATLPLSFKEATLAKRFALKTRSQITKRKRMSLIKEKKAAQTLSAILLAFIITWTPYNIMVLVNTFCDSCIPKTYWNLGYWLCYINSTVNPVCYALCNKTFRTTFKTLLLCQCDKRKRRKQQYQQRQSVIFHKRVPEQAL

Regarding `CC(=O)O[C@@H]1CC2CC1CN2C` (stereo partly specified), the inhibitory constant (Ki) in experiment [1] was 17.4 µM; in experiment [2], 1.43 µM; in experiment [3] it was 11.5 µM; in experiment [4], 21.9 µM; in experiment [5], 27.7 µM.

With `CC(=O)O[C@H]1CC2CC1N(Cc1ccccc1)C2` (stereo partly specified), the Ki in experiment [1] was 15.1 µM; in experiment [2], 7.21 µM; in experiment [6], 18.8 µM; in experiment [3] it was 6.63 µM; in experiment [4] it was 7.01 µM.

Regarding `CN1CC2CC1C[C@H]2OC(=O)C(C)(c1ccccc1)c1ccccc1` (stereo partly specified), the Ki in experiment [1] was 0.00118 µM; in experiment [4], 0.000423 µM; in experiment [5], 0.000522 µM.

Consider `CC(=O)O[C@H]1CC2CC1CN2C` (stereo partly specified), for which the inhibition constant (Ki) in experiment [1] is 10.1 µM; in experiment [2] it was 0.23 µM; in experiment [3] it was 9.84 µM; in experiment [4] it was 17.5 µM; in experiment [5], 12 µM.

On to `CC(=O)O[C@@H]1CC2CC1N(Cc1ccccc1)C2` (stereo partly specified), for which the Ki in experiment [1] amounted to 15.3 µM; in experiment [2], 2.57 µM; in experiment [3], 20 µM; in experiment [4] it was 2.26 µM; in experiment [5] it was 47.6 µM.

On to `CN1CC2CC1C[C@@H]2OC(=O)C(C)(c1ccccc1)c1ccccc1` (stereo partly specified), for which the inhibition constant Ki is 0.00407 µM in experiment [1], 0.000876 µM in experiment [4] and 0.000533 µM in experiment [5].

With `CC(=O)OC1CC2CC1N(C)C2` (stereo unspecified), the inhibition constant (Ki) turned out to be 24.9 µM in experiment [1]; 5.37 µM in experiment [2]; 17.5 µM in experiment [3]; 21.6 µM in experiment [4]; 28 µM in experiment [5].

On to `CC(=O)OC1CC2CC1CN2Cc1ccccc1` (stereo unspecified), for which the Ki in experiment [1] stood at 10.3 µM; in experiment [2], 1.56 µM; in experiment [3], 14.8 µM; in experiment [4], 18.9 µM; in experiment [5] it was 26.9 µM.
